4 compounds from US12195427B2, “MASP-2 inhibitors and methods of use” (priority 2018, dated 2025) can be followed below.

Where a name gives a salt, the structure may show the parent alone.

Assay [1] has as its target MASP-2 (CCP1-CCP2-SP) (Homo sapiens (Human), UniProt O00187). Briefly: Enzymatic Assay for MASP-2 (fluorogenic substrate). Type of assay: biochemical.
Assay [2] concerns the target MASP-2 CCP2-SP (Homo sapiens (Human), UniProt O00187). Briefly: MASP-2 co-crystallization, X-ray crystallography and structure analysis (H-bonds, van der Waals contacts).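 For Ligand-pharmacophore element distance, pharmacophore element C2: distance from averaged pharmacophore element to bound ligand; missing value means element absent.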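 For Ligand-pharmacophore element distance, pharmacophore element C3: distance from averaged pharmacophore element to bound ligand; missing value means element absent.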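 For Ligand-pharmacophore element distance, pharmacophore element C4: distance from averaged pharmacophore element to bound ligand; missing value means element absent.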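 For Ligand-pharmacophore element distance, pharmacophore element C5: distance from averaged pharmacophore element to bound ligand; missing value means element absent.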 On the set-up: van der Waals contact distance, MASP-2 HIS 483 atom CD2 / van der Waals contact distance, MASP-2 HIS 483 atom NE2 / van der Waals contact distance, SER 654 C to compound atom / van der Waals contact distance, SER 654 O to compound atom / van der Waals contact distance, TRP 655 C to compound atom / van der Waals contact distance, MASP-2 GLY 528 atom CA / van der Waals contact distance TRP 655 atom CZ3 / van der Waals contact distance TRP 655 atom N / van der Waals contact distance TRP 655 atom CE3 / van der Waals contact distance GLY 656 atom C / van der Waals contact distance GLY 656 atom CA / van der Waals contact distance GLY 656 atom O / van der Waals contact distance, MASP-2 TYR 607 atom CD1 / van der Waals contact distance, MASP-2 PRO 606 atom O / d(C3,CA1) / d(CA1,N1)2 / d(H4,O1) / d(H4,O2) / d(O1,O2) / d(CA1,O2) / d(CA6,O1) / d(CA6,O2) / d(CA1,C5) / d(O2,H3) / d(N2,C2) / d(CA5,N2) / d(N2,C4) / d(N2,C6) / d(N2,CA3) / d(N2,O3) / d(O4,H2): unit not given beside the values. Particulars: for H-bond distance to MASP-2 SER 657 atom O: SER 657 O; for van der Waals contact distance GLY 656 atom C: MASP-2 GLY 656 C; for van der Waals contact distance TRP 655 atom CE3: MASP-2 TRP 655 CE3, compound atom in line below; for van der Waals contact distance SER 657 atom C: MASP-2 SER 657 C, columns c12-c13 (inferred). A digest of the protocol: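 Inhibitor complexes were obtained by soaking crystals of E. coli-expressed human MASP-2 CCP2-SP constructs, then flash-cooling in liquid nitrogen. Structures solved by molecular replacement (1Q3X search model) from synchrotron diffraction; where several poses existed, only one was analyzed, and nonbonded contacts listed can include H-bonds.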

Setting [3] is: Table A5-1 pharmacophore: distance between elements, S2/S1 region.
[4] abbreviates: Table A7-1, between pharmacophore elements of the bound compound.
Setting [5] is: Table A8-6, nearest protein atom in cell to the left.

Chain of MASP-2 CCP2-SP (O00187 445-686): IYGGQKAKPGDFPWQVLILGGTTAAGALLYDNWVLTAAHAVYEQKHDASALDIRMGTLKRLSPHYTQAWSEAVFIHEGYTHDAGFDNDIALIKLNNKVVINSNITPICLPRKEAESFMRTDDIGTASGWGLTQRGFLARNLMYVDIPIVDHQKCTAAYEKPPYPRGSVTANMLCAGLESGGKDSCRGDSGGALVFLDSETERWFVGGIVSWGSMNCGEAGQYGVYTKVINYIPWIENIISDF
Chain of MASP-2 CCP2-SP (O00187 364-432 partner): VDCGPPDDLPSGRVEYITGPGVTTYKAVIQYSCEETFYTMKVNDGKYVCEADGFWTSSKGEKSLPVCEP
Chain of MASP-2 (CCP1-CCP2-SP) (O00187 445-686): as the sequence (O00187 445-686) above

`Cc1cccc(CNC(=O)[C@H](C)NC(=O)[C@H]2C[C@H](Cc3ccccc3)CN2)c1-n1ncnn1` [compound 1437, (2R,4S)-4-Benzyl-N—((S)-1-((3-methyl-2-(2H-tetrazol-2-yl)benzyl)amino)-1-oxopropan-2-yl)pyrrolidine-2-carboxamide] returned an inhibitory constant (Ki) in assay [1] of 500 to 2500 nM.

On to `N=C(N)c1ccc2[nH]c(Cc3ccccn3)nc2c1` [compound 2002, 2-(Pyridin-2-ylmethyl)-1H-benzo[d]imidazole-5-carboximidamide Dihydrochloride], for which the “MASP-2 versus thrombin selectivity” value in assay [1] (+Zn) is given as “++ (+Zn) (5.0 to 25-fold)”.

Regarding `CNC(=O)c1ccc2c(=O)n(Cc3ccccc3)c(=O)n(CC(=O)NCc3ccc(C(=N)N)cc3)c2c1` [compound 2018, 3-Benzyl-1-(2-((4-carbamimidoylbenzyl)amino)-2-oxoethyl)-N-methyl-2,4-dioxo-1,2,3,4-tetrahydroquinazoline-7-carboxamide], the “H-bond distance to MASP-2 GLN 665 atom OE1” value in assay [2] (Table A1 (H-Bonds), GLN 665 OE1) stood at 2.56. In assay [2] (Table A1 (H-Bonds), GLY 656 N), the “H-bond distance to MASP-2 GLY 656 atom N” value turned out to be 3.26. Besides, the “H-bond distance to MASP-2 SER 628 atom O” value in assay [2] (Table A1 (H-Bonds), SER 628 O) worked out at 3.01. Also, the “H-bond distance to MASP-2 SER 633 atom OG” value in assay [2] (Table A1 (H-Bonds), SER 633 OG) is reported as 3.08. Besides, the “H-bond distance to MASP-2 SER 654 atom O” value in assay [2] (Table A1 (H-Bonds), SER 654 O) worked out at 2.94. Further, the “H-bond distance to MASP-2 SER 657 atom O” value in assay [2] (Table A1 (H-Bonds)) is on record as 2.84. For the same compound, in assay [2] (Table A2-1), the “van der Waals contact distance, MASP-2 HIS 483 atom CD2” value is given as 3.7 and the “van der Waals contact distance, MASP-2 HIS 483 atom NE2” value worked out at 3.87. Also, the “van der Waals contact distance, MASP-2 PHE 529 atom CE2” value in assay [2] (Table A2-3) was determined as 3.68. Moreover, the “van der Waals contact distance, MASP-2 amino acid atom to compound atom” value in assay [2] (Table A2-7 continued: CYS 629 (CA)) turned out to be 3.87. For the same compound, the “van der Waals contact distance, SER 654 C to compound atom” value in assay [2] (Table A2-11) came to 3.79. In assay [2] (Table A2-13), the “van der Waals contact distance GLY 656 atom C” value is on record as 3.64 and the “van der Waals contact distance TRP 655 atom CE3” value was 3.76. For the same compound, in assay [2] (Table A2-13, MASP-2 TRP 655 N), the “van der Waals contact distance TRP 655 atom N” value was 3.89. Besides, in assay [2] (Table A2-14, MASP-2 GLY 656 O), the “van der Waals contact distance GLY 656 atom O” value came out at 3.3. Moreover, the “van der Waals contact distance SER 657 atom C” value in assay [2] (Table A2-14) is given as 3.7. Moreover, the “Ligand-pharmacophore element distance, pharmacophore element C2” value in assay [2] (Table A4-1, element C2) is given as 0. Moreover, in assay [2] (Table A4-1, element C3), the “Ligand-pharmacophore element distance, pharmacophore element C3” value amounted to 9.61. Also, the “Ligand-pharmacophore element distance, pharmacophore element C4” value in assay [2] (Table A4-1, element C4) was 0. In addition, in assay [2] (Table A4-1, element C5), the “Ligand-pharmacophore element distance, pharmacophore element C5” value is recorded as 0. Further, in assay [2] (Table A4-1, element C6), the “Ligand-pharmacophore element distance, pharmacophore element C6” value is recorded as 0. Further, in assay [2] (Table A4-1, element C7), the “Ligand-pharmacophore element distance, pharmacophore element C7” value came out at 0. Further, the “Ligand-pharmacophore element distance, pharmacophore element CA1” value in assay [2] (Table A4-1, element CA1) turned out to be 0.54. Moreover, the “Ligand-pharmacophore element distance, pharmacophore element CA2” value in assay [2] (Table A4-1, element CA2) worked out at 0. Also, the “Ligand-pharmacophore element distance, pharmacophore element CA3” value in assay [2] (Table A4-1, element CA3) is 0. Besides, the “Ligand-pharmacophore element distance, pharmacophore element CA4” value in assay [2] (Table A4-1, element CA4) stood at 0. In assay [2] (Table A4-1, element CA5), the “Ligand-pharmacophore element distance, pharmacophore element CA5” value is recorded as 1.25. Moreover, the “Ligand-pharmacophore element distance, pharmacophore element CA6” value in assay [2] (Table A4-1, element CA6) is 1.35. Also, in assay [2] (setting [3]), the “d(CA1,N1)” value is listed as 3.56, the “d(CA1,O1)” value was determined as 7.59, the “d(CA1,O2)” value came out at 6.76 and the “d(CA6,O1)” value amounted to 2.73. Also, in assay [2] (setting [3]), the “d(CA6,O2)” value was found to be 2.50, the “d(H4,O1)” value came out at 3.89, the “d(H4,O2)” value is 5.39 and the “d(O1,O2)” value came to 4.92. The “d(O2,H3)” value in assay [2] (Table A5-2 pharmacophore distance, S3/S4 region) turned out to be 9.00. Moreover, in assay [2] (Table A6-1 pharmacophore angle), the “a(CA1, O1, O2)” value is recorded as 100.76; the “a(O1, CA6, O2)” value is 159.18; the “a(O1, O2, H4)” value came out at 118.45. Besides, the “A(N1, CA1, O1) a)” value in assay [2] (Table A6-1 pharmacophore angle, all compounds with protonatable center N1 except Methyl-amino-pyridine) came out at 169.37. Also, in assay [2] (Table A6-2 pharmacophore angle), the “a(O1, O2, H3)” value stood at 154.86. In addition, in assay [2] (setting [4]), the “Pharmacophore torsion angle a(CA6, O1, H4, O2)” value is given as −9.94; the “Pharmacophore torsion angle a(H4, O1, O2, H3)” value is on record as 30.27; the “Pharmacophore torsion angle a(N1, CA1, O2, H4)” value was −154.72; the “Pharmacophore torsion angle a(O1, H4, O2, CA1)” value is on record as −146.71. In assay [2] (Table A8-6, 6th residue column, nearest protein atom in cell to the left), the “Pharmacophore protein distance to MET_658 (first MET_658 column)” value was 1.58. The “Pharmacophore protein distance to MET_658 (second MET_658 column)” value in assay [2] (Table A8-6, 9th residue column, nearest protein atom in cell to the left) was determined as 2.86. In assay [2] (setting [5]), the “Pharmacophore protein distance to GLY_528” value turned out to be 3.65, the “Pharmacophore protein distance to PHE_529” value worked out at 2.90, the “Pharmacophore protein distance to PRO_608” value was found to be 3.74 and the “Pharmacophore protein distance to SER_611” value is 2.86. The “Pharmacophore protein distance to TRP_655” value in assay [2] (Table A8-6, pharmacophore elements C6, CA3, O3, H1, nearest protein atom in cell to the left) is on record as 3.77.

For `N=C(N)c1ccc(CNC(=O)[C@@H]2CCN2C(=O)[C@H](NCC(=O)O)C2CCCCC2)cc1` [melagatran, reference compound], in assay [2] (Table A1 (H-Bonds), SER 628 OG), the “H-bond distance to MASP-2 SER 628 atom OG” value is on record as 2.75. For the same compound, the “H-bond distance to MASP-2 SER 657 atom O” value in assay [2] (Table A1 (H-Bonds)) is recorded as 2.84. In addition, in assay [2] (Table A2-4), the “van der Waals contact distance, MASP-2 TYR 607 atom CD2” value came to 3.72. In addition, the “van der Waals contact distance, MASP-2 amino acid atom to compound atom” value in assay [2] (Table A2-5: TYR 607 (CE1, CE2, OH), PRO 608 (CD, CG), SER 611 (CA)) is reported as 3.67; in assay [2] (Table A2-9, ARG 630, AA atoms CG, CZ) it was 3.8. For the same compound, the “van der Waals contact distance GLY 656 atom C” value in assay [2] (Table A2-13) is listed as 3.42. Also, in assay [2] (Table A2-13), the “van der Waals contact distance TRP 655 atom CE3” value is listed as 3.75. Also, in assay [2] (Table A2-13, MASP-2 TRP 655 O), the “van der Waals contact distance TRP 655 atom O” value came out at 3.39. Moreover, the “van der Waals contact distance SER 657 atom C” value in assay [2] (Table A2-14) amounted to 3.77; in assay [2] (Table A2-14, listed as Melagatran), 3.68.
